Like-named read-outs stand apart in the source and are kept apart here.
Columns and labels:
[1] = Experimental lipophilicity by RP-TLC; conditions: for φ0 (hydrophobicity index): φ0 = −RM0/b
Source text: The RP-TLC method was used to determine the experimental lipophilicity according to the literature. Modified silica gel was used as the stationary phase and a mixture of tris(hydroxymethyl)aminomethane (TRIS) (0.2 M, pH = 7.4) with acetone as the mobile phase. […] For this reason, an aprotic solvent such as acetone was chosen as the mobile phase.
Spots were visualized in iodine vapor.
The retardation parameter (Rf) was converted to the RM parameter according to Equation (1):(1) RM=log(1/Rf−1)
The RM parameter was calculated for every concentration of acetone and extrapolated to zero concentration of organic solvent in the mobile phase. The chromatographic parameter of lipophilicity (RM0) was calculated using Equation (2):(2) RM=RM0+bC where C is the concentration of acetone in the mobile phase, while b is the slope of the regression plot.
In the next step, the relative lipophilicity parameter RM0 was converted to the absolute lipophilicity parameter logPTLC using the calibration curve.
Lipophilicity correlates with hydrophobicity, which determines the solubility of the compound in water. The hydrophobicity is described by the hydrophobicity index (φ0), which can be calculated according to Equation (4). (4) φ0=−RM0/b

[2] = tested on: NAD(P)H quinone dehydrogenase 1 (NQO1); conditions: cited from earlier work
[3] = RP-TLC, acetone/TRIS 0.2 M pH 7.4, extrapolated to zero acetone
[4] = from RM0 by calibration curve Equation (3)

| SMILES | chromatographic logP [1] | RM0 (chromatographic parameter of lipophilicity) [1, 3] | logPTLC (experimental lipophilicity) [1, 4] | φ0 (hydrophobicity index) [1] | logNQO1 (enzymatic conversion rate of NQO1) [2] | logPTLC (experimental lipophilicity) [1] | RM0 (chromatographic parameter of lipophilicity) ([1]; pH 7.4) |
| --- | --- | --- | --- | --- | --- | --- | --- |
| NC(=O)c1ccccc1 [A, benzamide, reference compound] | 0.54 | 0.54 |  |  |  |  |  |
| Clc1ccc(C(c2ccc(Cl)cc2)C(Cl)(Cl)Cl)cc1 [F, dichlorodiphenyltrichloroethane, reference compound] |  | 5.60 | 6.31 |  |  |  |  |
| O=C1C(Cl)=C(Oc2cccc3ccc(N4CCCC4)nc23)C(=O)c2ccccc21 [Compound 23] | 4.16 | 3.72 ± 0.02 |  | 81.13 | 2.549 |  |  |
| Cc1ccc2c(n1)C(=O)C(Oc1cccc3ccc(Cl)nc13)=C(Cl)C2=O [Compound 16] | 3.3 | 2.96 ± 0.01 |  | 69.66 | 2.949 |  |  |
| Cc1ccc2c(n1)C(=O)C(Oc1cccc3ccc(N4CCCC4)nc13)=C(Cl)C2=O [Compound 17] | 3.79 | 3.39 ± 0.03 |  | 75.30 | 2.778 |  |  |
| Cc1ccc2c(n1)C(=O)C(Oc1cccc3ccc(N4CCOCC4)nc13)=C(Cl)C2=O [Compound 18] | 2.98 | 2.69 ± 0.03 |  | 68.95 | 2.322 |  |  |
| O=C1C(Cl)=C(Oc2cccc3ccc(N4CCCC4)nc23)C(=O)c2ncccc21 [Compound 5] | 2.6 | 2.35 ± 0.02 |  | 74.53 | 3.034 |  |  |
| Cc1ccc2c(n1)C(=O)C(Oc1cccc3cccnc13)=C(Cl)C2=O [Compound 13] |  |  |  | 66.07 | 3.178 | 2.31 | 2.09 ± 0.02 |
| Cc1ccc2c(n1)C(=O)C(Oc1cccc3ccc(C)nc13)=C(Cl)C2=O [Compound 14] |  |  |  | 69.97 | 3.157 | 2.00 | 1.82 ± 0.02 |
| O=C1C(Cl)=C(Oc2cccc3ccc(N4CCOCC4)nc23)C(=O)c2ncccc21 [Compound 6] | 2.72 | 2.45 ± 0.04 |  | 66.81 | 2.053 |  |  |
| O=C1C(Cl)=C(Oc2cccc3cccnc23)C(=O)c2ccccc21 [Compound 19] |  | 2.90 ± 0.02 | 3.23 | 78.79 | 3.108 |  |  |
| c1ccc2cc3ccccc3cc2c1 [E, anthracene, reference compound] | 4.45 | 3.97 |  |  |  |  |  |
| O=C1C(Cl)=C(Oc2cccc3ccc(N4CCOCC4)nc23)C(=O)c2ccccc21 [Compound 24] | 4.5 | 4.01 ± 0.01 |  | 75.95 | 1.940 |  |  |
| O=C1C(Cl)=C(Oc2cccc3ccc(N4CCCC4)nc23)C(=O)c2cnccc21 [Compound 11] | 3.15 | 2.83 ± 0.03 |  | 74.76 | 2.330 |  |  |
| Cc1ccc2cccc(OC3=C(Cl)C(=O)c4cccnc4C3=O)c2n1 [Compound 2] |  |  |  | 68.99 | 3.112 | 1.84 | 1.68 ± 0.03 |
| Cc1ccc2c(n1)C(=O)C(Oc1cccc3ccc(C=O)nc13)=C(Cl)C2=O [Compound 15] | 2.26 | 2.05 ± 0.01 |  | 71.78 | 2.672 |  |  |
| O=Cc1ccc2cccc(OC3=C(Cl)C(=O)c4ccccc4C3=O)c2n1 [Compound 21] | 4.61 | 4.11 ± 0.01 |  | 80.01 | 2.740 |  |  |
| O=C1C(Cl)=C(Oc2cccc3ccc(Cl)nc23)C(=O)c2ncccc21 [Compound 4] | 2.55 | 2.55 ± 0.02 |  | 65.88 | 2.903 |  |  |
| Cc1ccc2cccc(OC3=C(Cl)C(=O)c4ccccc4C3=O)c2n1 [Compound 20] |  | 3.34 ± 0.01 | 3.73 | 79.55 | 3.100 |  |  |
| CC(=O)c1ccc(Br)cc1 [C, 4-bromoacetophenone, reference compound] |  | 2.33 | 2.58 |  |  |  |  |
| CC(=O)Nc1ccccc1 [B, acetanilide, reference compound] |  | 1.11 | 1.19 |  |  |  |  |
| O=C1C(Cl)=C(Oc2cccc3ccc(N4CCOCC4)nc23)C(=O)c2cnccc21 [Compound 12] | 3.68 | 3.30 ± 0.02 |  | 72.22 | 2.155 |  |  |
| O=C1C(Cl)=C(Oc2cccc3cccnc23)C(=O)c2ncccc21 [Compound 1] |  |  |  | 72.87 | 3.146 | 1.65 | 1.51 ± 0.02 |
| O=Cc1ccc2cccc(OC3=C(Cl)C(=O)c4ccncc4C3=O)c2n1 [Compound 9] | 2.72 | 2.45 ± 0.02 |  | 73.71 | 2.502 |  |  |
| Cc1ccc2cccc(OC3=C(Cl)C(=O)c4ccncc4C3=O)c2n1 [Compound 8] |  |  |  | 74.47 | 3.058 | 2.85 | 2.56 ± 0.02 |
| O=C1C(Cl)=C(Oc2cccc3ccc(Cl)nc23)C(=O)c2ccccc21 [Compound 22] | 5.06 | 4.51 ± 0.02 |  | 76.85 | 3.000 |  |  |
| O=C1C(Cl)=C(Oc2cccc3ccc(Cl)nc23)C(=O)c2cnccc21 [Compound 10] | 3.63 | 3.25 ± 0.01 |  | 78.21 | 2.801 |  |  |
| O=Cc1ccc2cccc(OC3=C(Cl)C(=O)c4cccnc4C3=O)c2n1 [Compound 3] | 1.75 | 1.60 ± 0.03 |  | 68.09 | 3.041 |  |  |
| O=C1C(Cl)=C(Oc2cccc3cccnc23)C(=O)c2cnccc21 [Compound 7] |  |  |  | 72.57 | 3.083 | 2.40 | 2.17 ± 0.01 |
